Reference: ChEMBL document CHEMBL1201862, “PubChem BioAssay data set” (2004)
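Compound exposure: 48 hours, 5 concentrations, 96-well plates. GI50 is the concentration that inhibits growth by half.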 Activity calls are given as the source filed them. No stated cut-off is given here; in the data, active = GI50 up to about 1.1 µM and inactive = higher.

Key:
Test in all cases: DTP human tumour cell line panel, 48 h
[1] = system: UACC-62
[2] = system: DU-145
[3] = system: SK-MEL-28
[4] = system: A549
[5] = system: UO-31
[6] = system: NCI-H522
[7] = system: NCI-H460
[8] = system: SK-OV-3
[9] = system: HL-60
[10] = system: MCF7
[11] = system: IGROV-1
[12] = system: TK-10
[13] = system: SNB-19
[14] = system: HCC 2998
[15] = system: OVCAR-5
[16] = system: SK-MEL-5
[17] = system: MDA-MB-231
[18] = system: NCI-H23
[19] = system: PC-3
[20] = system: U-251

## COc1ccc2c(c1)c1nn(CCN(C)C)c3ccc4c(=O)n(CCN(C)C)c(=O)n2c4c13
[1]
  GI50: 0.116 µM (active)
[2]
  GI50: 0.0135 µM (active)
[3]
  GI50: 0.22 µM (active)
[4]
  GI50: < 0.01 µM (active)
[5]
  GI50: 0.0255 µM (active)
[6]
  GI50: < 0.01 µM (active)
[7]
  GI50: < 0.01 µM (active)
[8]
  GI50: < 0.0157 µM (active)
[9]
  GI50: 0.042 µM (active)
[10]
  GI50: < 0.0158 µM (active)
[11]
  GI50: < 0.01 µM (active)
[12]
  GI50: 0.0649 µM (active)
[13]
  GI50: 0.0224 µM (active)
[14]
  GI50: < 0.01 µM (active)
[15]
  GI50: < 0.0223 µM (active)
[16]
  GI50: 0.198 µM (active)
[17]
  GI50: 0.0211 µM (active)
[18]
  GI50: < 0.0241 µM (active)
[19]
  GI50: 0.0103 µM (active)
[20]
  GI50: < 0.01 µM (active)

## COC(=O)c1c(C)[n+]([O-])c2cc(Cl)c(Cl)cc2[n+]1[O-]
[1]
  GI50: 15 µM (inactive)
[2]
  GI50: 12.5 µM (inactive)
[3]
  GI50: 27.4 µM (inactive)
[4]
  GI50: 8.07 µM (inactive)
[5]
  GI50: 15.8 µM (inactive)
[6]
  GI50: 10.1 µM (inactive)
[7]
  GI50: 5.38 µM (inactive)
[8]
  GI50: 12.9 µM (inactive)
[9]
  GI50: 17.7 µM (inactive)
[10]
  GI50: 14.5 µM (inactive)
[11]
  GI50: 4.39 µM (inactive)
[12]
  GI50: 11.3 µM (inactive)
[13]
  GI50: 27.4 µM (inactive)
[14]
  GI50: 16.1 µM (inactive)
[15]
  GI50: 30.9 µM (inactive)
[16]
  GI50: 8.71 µM (inactive)
[17]
  GI50: 19.4 µM (inactive)
[18]
  GI50: 30.1 µM (inactive)
[19]
  GI50: 22.4 µM (inactive)
[20]
  GI50: 16.5 µM (inactive)

## Cn1c(-c2ccc(C=O)o2)ccc1-c1ccc(C=O)o1
[1]
  GI50: 74.1 µM (inactive)
[2]
  GI50: 49.4 µM (inactive)
[3]
  GI50: 40.1 µM (inactive)
[4]
  GI50: > 100 µM (inactive)
[5]
  GI50: 35.3 µM (inactive)
[6]
  GI50: 1.68 µM (inactive)
[7]
  GI50: > 100 µM (inactive)
[8]
  GI50: > 100 µM (inactive)
[9]
  GI50: 19.8 µM (inactive)
[10]
  GI50: 28.8 µM (inactive)
[11]
  GI50: 36.9 µM (inactive)
[12]
  GI50: > 100 µM (inactive)
[13]
  GI50: 54.8 µM (inactive)
[14]
  GI50: > 100 µM (inactive)
[15]
  GI50: > 100 µM (inactive)
[16]
  GI50: 30.9 µM (inactive)
[17]
  GI50: 38 µM (inactive)
[18]
  GI50: 45.7 µM (inactive)
[19]
  GI50: 39.4 µM (inactive)
[20]
  GI50: 40.7 µM (inactive)

## N=c1oc2c(Cl)cc(Cl)cc2cc1C(=O)Nc1cccc2ccccc12
[1]
  GI50: 40.6 µM (inactive)
[2]
  GI50: > 89.9 µM (inactive)
[3]
  GI50: > 80.9 µM (inactive)
[4]
  GI50: 6.55 µM (inactive)
[5]
  GI50: 10.2 µM (inactive)
[6]
  GI50: 8.17 µM (inactive)
[7]
  GI50: 5.01 µM (inactive)
[8]
  GI50: 15.9 µM (inactive)
[9]
  GI50: 18.8 µM (inactive)
[10]
  GI50: > 53.6 µM (inactive)
[11]
  GI50: 5.32 µM (inactive)
[12]
  GI50: 2.33 µM (inactive)
[13]
  GI50: 19.5 µM (inactive)
[14]
  GI50: 6.93 µM (inactive)
[15]
  GI50: 21.7 µM (inactive)
[16]
  GI50: 37.9 µM (inactive)
[17]
  GI50: 3.78 µM (inactive)
[18]
  GI50: 16.5 µM (inactive)
[19]
  GI50: 24.2 µM (inactive)
[20]
  GI50: 2.73 µM (inactive)

## COc1c2ccccc2c(OC)c2nc(C)ccc12
[1]
  GI50: > 81.8 µM (inactive)
[2]
  GI50: > 100 µM (inactive)
[3]
  GI50: > 100 µM (inactive)
[4]
  GI50: > 100 µM (inactive)
[5]
  GI50: > 100 µM (inactive)
[6]
  GI50: 69.7 µM (inactive)
[7]
  GI50: 39.7 µM (inactive)
[8]
  GI50: > 100 µM (inactive)
[9]
  GI50: 26.8 µM (inactive)
[10]
  GI50: > 74 µM (inactive)
[11]
  GI50: > 100 µM (inactive)
[12]
  GI50: > 100 µM (inactive)
[13]
  GI50: > 100 µM (inactive)
[14]
  GI50: > 100 µM (inactive)
[15]
  GI50: > 100 µM (inactive)
[16]
  GI50: 71.4 µM (inactive)
[17]
  GI50: > 100 µM (inactive)
[18]
  GI50: > 100 µM (inactive)
[19]
  GI50: > 91 µM (inactive)
[20]
  GI50: 42.5 µM (inactive)

## CCOC(=O)n1c2ccccc2c(=O)n1CCO
[1]
  GI50: > 100 µM (inactive)
[2]
  GI50: > 100 µM (inactive)
[3]
  GI50: > 100 µM (inactive)
[4]
  GI50: > 100 µM (inactive)
[5]
  GI50: > 100 µM (inactive)
[6]
  GI50: > 100 µM (inactive)
[7]
  GI50: > 100 µM (inactive)
[8]
  GI50: > 100 µM (inactive)
[9]
  GI50: > 100 µM (inactive)
[10]
  GI50: > 100 µM (inactive)
[11]
  GI50: > 100 µM (inactive)
[12]
  GI50: > 100 µM (inactive)
[13]
  GI50: > 100 µM (inactive)
[14]
  GI50: > 100 µM (inactive)
[15]
  GI50: > 100 µM (inactive)
[16]
  GI50: > 100 µM (inactive)
[17]
  GI50: > 100 µM (inactive)
[18]
  GI50: > 100 µM (inactive)
[19]
  GI50: > 100 µM (inactive)
[20]
  GI50: > 100 µM (inactive)

## COc1ccccc1N1CCN(CCCCNC(=O)c2ccc([N+](=O)[O-])o2)CC1
[1]
  GI50: 5.93 µM (inactive)
[2]
  GI50: 4.76 µM (inactive)
[3]
  GI50: 25.1 µM (inactive)
[4]
  GI50: 6.98 µM (inactive)
[5]
  GI50: 10.4 µM (inactive)
[6]
  GI50: 2.69 µM (inactive)
[7]
  GI50: 3.43 µM (inactive)
[8]
  GI50: 15.9 µM (inactive)
[9]
  GI50: 5.86 µM (inactive)
[10]
  GI50: 4.75 µM (inactive)
[11]
  GI50: 13.7 µM (inactive)
[12]
  GI50: 5.9 µM (inactive)
[13]
  GI50: 11.8 µM (inactive)
[14]
  GI50: 2.42 µM (inactive)
[15]
  GI50: 15.1 µM (inactive)
[16]
  GI50: 6.75 µM (inactive)
[17]
  GI50: 23.6 µM (inactive)
[18]
  GI50: 5.79 µM (inactive)
[19]
  GI50: 13.6 µM (inactive)
[20]
  GI50: 7.55 µM (inactive)

## C#CCCCC(=O)N(C(=O)C[S+]([O-])CC)c1ccccc1 (stereo not given)
[1]
  GI50: > 100 µM (inactive)
[2]
  GI50: > 100 µM (inactive)
[3]
  GI50: > 100 µM (inactive)
[4]
  GI50: > 100 µM (inactive)
[5]
  GI50: > 100 µM (inactive)
[6]
  GI50: > 100 µM (inactive)
[7]
  GI50: > 100 µM (inactive)
[8]
  GI50: > 100 µM (inactive)
[9]
  GI50: > 100 µM (inactive)
[10]
  GI50: > 100 µM (inactive)
[11]
  GI50: > 100 µM (inactive)
[12]
  GI50: > 100 µM (inactive)
[13]
  GI50: > 100 µM (inactive)
[14]
  GI50: > 100 µM (inactive)
[15]
  GI50: > 100 µM (inactive)
[16]
  GI50: > 100 µM (inactive)
[17]
  GI50: > 100 µM (inactive)
[18]
  GI50: > 100 µM (inactive)
[19]
  GI50: > 100 µM (inactive)
[20]
  GI50: > 100 µM (inactive)

## CC(C)(C)OC(=O)NC(CCCCNC(=O)OCc1ccccc1)C(=O)NCCNc1ccc(NCCNC(=O)C(CCCCNC(=O)OCc2ccccc2)NC(=O)OC(C)(C)C)c2c1C(=O)c1ccccc1C2=O (stereo not given)
[1]
  GI50: 23 µM (inactive)
[2]
  GI50: > 100 µM (inactive)
[3]
  GI50: 14.7 µM (inactive)
[4]
  GI50: > 100 µM (inactive)
[5]
  GI50: > 89.7 µM (inactive)
[6]
  GI50: 10.3 µM (inactive)
[7]
  GI50: > 100 µM (inactive)
[8]
  GI50: 25.4 µM (inactive)
[9]
  GI50: 1.02 µM (active)
[10]
  GI50: 6.97 µM (inactive)
[11]
  GI50: 29.3 µM (inactive)
[12]
  GI50: > 100 µM (inactive)
[13]
  GI50: 10.5 µM (inactive)
[14]
  GI50: 8.67 µM (inactive)
[15]
  GI50: > 100 µM (inactive)
[16]
  GI50: > 100 µM (inactive)
[17]
  GI50: 5.85 µM (inactive)
[18]
  GI50: 27.5 µM (inactive)
[19]
  GI50: > 100 µM (inactive)
[20]
  GI50: 3.18 µM (inactive)

## CC(=O)Nc1ccc(S(=O)(=O)[N-]C2C(=O)c3ccccc3C(=O)C2[n+]2ccccc2)cc1 (stereo not given)
[1]
  GI50: 14.8 µM (inactive)
[2]
  GI50: > 100 µM (inactive)
[3]
  GI50: 16.5 µM (inactive)
[4]
  GI50: 19.5 µM (inactive)
[5]
  GI50: 9.06 µM (inactive)
[6]
  GI50: 19.2 µM (inactive)
[7]
  GI50: 29.3 µM (inactive)
[8]
  GI50: 94.8 µM (inactive)
[9]
  GI50: 13.8 µM (inactive)
[10]
  GI50: 16.8 µM (inactive)
[11]
  GI50: 15 µM (inactive)
[12]
  GI50: > 100 µM (inactive)
[13]
  GI50: 14.3 µM (inactive)
[14]
  GI50: 19.1 µM (inactive)
[15]
  GI50: 17.7 µM (inactive)
[16]
  GI50: 3.87 µM (inactive)
[17]
  GI50: 26.6 µM (inactive)
[18]
  GI50: 7.64 µM (inactive)
[19]
  GI50: 17.1 µM (inactive)
[20]
  GI50: 14.3 µM (inactive)
